Measurements from doi:10.1101/2020.06.11.145995v1 (biorxiv, 2020).
Where two headings read alike, the source gives them in different places.

Columns and labels:
Test in all cases: biochemical
HPK1 = HPK1 (Homo sapiens, UniProt Q92918)
INSRR = INSRR (Homo sapiens, UniProt P14616)
MEK3 = MEK3 (Homo sapiens, UniProt P46734)
EGFR = EGFR (Homo sapiens, UniProt P00533)
MAP4K5 = MAP4K5 (Homo sapiens, UniProt Q9Y4K4)
MARK4 = MARK4 (Homo sapiens, UniProt Q96L34)
AKT2 = AKT2 (Homo sapiens, UniProt P31751)
IKK-epsilon = IKK-epsilon (Homo sapiens, UniProt Q14164)
MYO3B = MYO3B (Homo sapiens, UniProt Q8WXR4)
DAPK2 = DAPK2 (Homo sapiens, UniProt Q9UIK4)
FLT3(D835H) = FLT3(D835H) (Homo sapiens, UniProt P36888, D835H)
CAMK1D = CAMK1D (Homo sapiens, UniProt Q8IU85)
LYN = LYN (Homo sapiens, UniProt P07948)
FLT3(R834Q) = FLT3(R834Q) (Homo sapiens, UniProt P36888, R834Q)
CDK4-cyclinD3 = CDK4-cyclinD3 (Homo sapiens, UniProt P11802)
CDK4-cyclinD1 = CDK4-cyclinD1 (Homo sapiens, UniProt P11802)
CSNK1A1 = CSNK1A1 (Homo sapiens, UniProt P48729)
CDC2L2 = CDC2L2 (Homo sapiens, UniProt Q9UQ88)
DCAMKL1 = DCAMKL1 (Homo sapiens, UniProt O15075)
MUSK = MUSK (Homo sapiens, UniProt O15146)
EGFR(G719S) = EGFR(G719S) (Homo sapiens, UniProt P00533, G719S)
CDK7 = CDK7 (Homo sapiens, UniProt P50613)
ITK = ITK (Homo sapiens, UniProt Q08881)
FLT3 = FLT3 (Homo sapiens, UniProt P36888)
EGFR(G719C) = EGFR(G719C) (Homo sapiens, UniProt P00533, G719C)
MAPKAPK5 = MAPKAPK5 (Homo sapiens, UniProt Q8IW41)
MLK2 = MLK2 (Homo sapiens, UniProt Q02779)
MKNK1 = MKNK1 (Homo sapiens, UniProt Q9BUB5)
AMPK-alpha1 = AMPK-alpha1 (Homo sapiens, UniProt Q13131)
[1] = read-out: CPT-1-70-1 (1uM) % control
[2] = read-out: HYJ-2-002-1 (1uM) % control

Sequence of CDK4-cyclinD3 (P11802 whole entry): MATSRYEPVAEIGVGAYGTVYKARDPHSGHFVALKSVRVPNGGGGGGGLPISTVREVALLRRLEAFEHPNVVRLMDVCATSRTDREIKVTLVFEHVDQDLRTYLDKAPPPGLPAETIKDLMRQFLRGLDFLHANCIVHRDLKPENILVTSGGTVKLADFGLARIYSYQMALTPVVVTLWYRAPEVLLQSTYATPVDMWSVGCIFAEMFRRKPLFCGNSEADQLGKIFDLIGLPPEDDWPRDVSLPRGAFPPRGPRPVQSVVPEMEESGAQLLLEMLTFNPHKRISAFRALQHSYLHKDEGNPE
Sequence of CDK4-cyclinD3 (P30281 whole entry partner): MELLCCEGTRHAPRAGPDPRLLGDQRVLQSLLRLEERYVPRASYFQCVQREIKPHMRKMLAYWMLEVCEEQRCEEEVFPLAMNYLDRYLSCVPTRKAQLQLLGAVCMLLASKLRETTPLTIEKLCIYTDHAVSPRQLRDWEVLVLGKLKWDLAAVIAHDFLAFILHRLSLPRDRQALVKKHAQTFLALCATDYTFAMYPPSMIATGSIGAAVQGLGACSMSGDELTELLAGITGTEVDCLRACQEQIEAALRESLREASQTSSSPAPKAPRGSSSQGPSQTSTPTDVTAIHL
Sequence of CDK4-cyclinD1 (P11802 whole entry): as the sequence (P11802 whole entry) above
Sequence of CDK4-cyclinD1 (P24385 whole entry partner): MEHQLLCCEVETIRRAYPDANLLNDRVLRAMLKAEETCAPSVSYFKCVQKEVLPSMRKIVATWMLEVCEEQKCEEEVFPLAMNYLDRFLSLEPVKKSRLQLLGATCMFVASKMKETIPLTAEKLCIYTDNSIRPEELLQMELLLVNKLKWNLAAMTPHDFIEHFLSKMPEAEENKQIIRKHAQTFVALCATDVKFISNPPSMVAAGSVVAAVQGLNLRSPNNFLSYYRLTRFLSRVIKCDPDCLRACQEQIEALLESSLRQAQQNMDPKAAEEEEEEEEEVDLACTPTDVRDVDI
Sequence of CDC2L2 (Q9UQ88 whole entry): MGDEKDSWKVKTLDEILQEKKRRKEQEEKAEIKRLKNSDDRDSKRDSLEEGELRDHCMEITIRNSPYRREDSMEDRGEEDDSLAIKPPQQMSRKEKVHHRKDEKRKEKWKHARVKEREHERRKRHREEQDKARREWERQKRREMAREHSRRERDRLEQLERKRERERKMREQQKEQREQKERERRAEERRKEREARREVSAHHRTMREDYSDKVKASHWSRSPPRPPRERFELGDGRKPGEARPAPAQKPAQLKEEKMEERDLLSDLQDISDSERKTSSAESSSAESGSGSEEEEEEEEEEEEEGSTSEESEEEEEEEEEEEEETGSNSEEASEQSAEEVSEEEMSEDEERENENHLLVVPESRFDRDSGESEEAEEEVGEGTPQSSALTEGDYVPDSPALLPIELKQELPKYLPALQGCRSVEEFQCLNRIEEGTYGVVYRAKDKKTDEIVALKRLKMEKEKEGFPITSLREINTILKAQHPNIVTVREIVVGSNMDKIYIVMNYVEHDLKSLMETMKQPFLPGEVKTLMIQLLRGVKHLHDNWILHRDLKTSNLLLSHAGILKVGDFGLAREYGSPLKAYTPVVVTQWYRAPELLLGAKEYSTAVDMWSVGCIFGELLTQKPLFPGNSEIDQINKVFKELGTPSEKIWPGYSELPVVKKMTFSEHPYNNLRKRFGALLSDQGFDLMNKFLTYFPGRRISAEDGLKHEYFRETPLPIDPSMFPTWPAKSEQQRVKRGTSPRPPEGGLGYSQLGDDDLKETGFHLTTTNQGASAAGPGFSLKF
Sequence of MLK2 (Q02779 whole entry): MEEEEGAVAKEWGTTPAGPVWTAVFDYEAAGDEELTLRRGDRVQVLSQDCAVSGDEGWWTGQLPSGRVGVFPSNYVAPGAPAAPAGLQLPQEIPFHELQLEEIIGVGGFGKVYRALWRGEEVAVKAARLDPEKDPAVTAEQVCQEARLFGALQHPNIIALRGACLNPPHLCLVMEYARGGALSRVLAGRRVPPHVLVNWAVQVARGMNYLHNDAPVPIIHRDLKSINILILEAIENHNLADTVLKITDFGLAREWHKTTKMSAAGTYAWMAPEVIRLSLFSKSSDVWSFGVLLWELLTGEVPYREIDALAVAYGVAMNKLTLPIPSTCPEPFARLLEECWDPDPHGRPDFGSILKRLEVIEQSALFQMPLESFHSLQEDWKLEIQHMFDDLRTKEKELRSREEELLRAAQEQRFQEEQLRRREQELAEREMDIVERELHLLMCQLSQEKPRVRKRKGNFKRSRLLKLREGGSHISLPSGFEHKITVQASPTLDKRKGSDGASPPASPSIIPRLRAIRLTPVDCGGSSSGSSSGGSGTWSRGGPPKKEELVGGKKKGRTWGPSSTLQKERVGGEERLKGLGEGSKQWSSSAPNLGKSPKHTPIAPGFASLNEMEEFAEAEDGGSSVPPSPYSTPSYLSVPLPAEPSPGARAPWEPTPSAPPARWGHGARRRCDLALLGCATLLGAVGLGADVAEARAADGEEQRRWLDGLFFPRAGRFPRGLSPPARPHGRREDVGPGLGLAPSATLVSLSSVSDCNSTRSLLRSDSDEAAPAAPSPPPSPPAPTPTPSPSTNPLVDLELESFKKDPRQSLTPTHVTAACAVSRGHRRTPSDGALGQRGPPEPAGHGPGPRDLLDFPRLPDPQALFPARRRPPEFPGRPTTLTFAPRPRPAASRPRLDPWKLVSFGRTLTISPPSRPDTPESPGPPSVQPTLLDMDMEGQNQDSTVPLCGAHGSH
Sequence of EGFR(G719C) (P00533 whole entry G719C): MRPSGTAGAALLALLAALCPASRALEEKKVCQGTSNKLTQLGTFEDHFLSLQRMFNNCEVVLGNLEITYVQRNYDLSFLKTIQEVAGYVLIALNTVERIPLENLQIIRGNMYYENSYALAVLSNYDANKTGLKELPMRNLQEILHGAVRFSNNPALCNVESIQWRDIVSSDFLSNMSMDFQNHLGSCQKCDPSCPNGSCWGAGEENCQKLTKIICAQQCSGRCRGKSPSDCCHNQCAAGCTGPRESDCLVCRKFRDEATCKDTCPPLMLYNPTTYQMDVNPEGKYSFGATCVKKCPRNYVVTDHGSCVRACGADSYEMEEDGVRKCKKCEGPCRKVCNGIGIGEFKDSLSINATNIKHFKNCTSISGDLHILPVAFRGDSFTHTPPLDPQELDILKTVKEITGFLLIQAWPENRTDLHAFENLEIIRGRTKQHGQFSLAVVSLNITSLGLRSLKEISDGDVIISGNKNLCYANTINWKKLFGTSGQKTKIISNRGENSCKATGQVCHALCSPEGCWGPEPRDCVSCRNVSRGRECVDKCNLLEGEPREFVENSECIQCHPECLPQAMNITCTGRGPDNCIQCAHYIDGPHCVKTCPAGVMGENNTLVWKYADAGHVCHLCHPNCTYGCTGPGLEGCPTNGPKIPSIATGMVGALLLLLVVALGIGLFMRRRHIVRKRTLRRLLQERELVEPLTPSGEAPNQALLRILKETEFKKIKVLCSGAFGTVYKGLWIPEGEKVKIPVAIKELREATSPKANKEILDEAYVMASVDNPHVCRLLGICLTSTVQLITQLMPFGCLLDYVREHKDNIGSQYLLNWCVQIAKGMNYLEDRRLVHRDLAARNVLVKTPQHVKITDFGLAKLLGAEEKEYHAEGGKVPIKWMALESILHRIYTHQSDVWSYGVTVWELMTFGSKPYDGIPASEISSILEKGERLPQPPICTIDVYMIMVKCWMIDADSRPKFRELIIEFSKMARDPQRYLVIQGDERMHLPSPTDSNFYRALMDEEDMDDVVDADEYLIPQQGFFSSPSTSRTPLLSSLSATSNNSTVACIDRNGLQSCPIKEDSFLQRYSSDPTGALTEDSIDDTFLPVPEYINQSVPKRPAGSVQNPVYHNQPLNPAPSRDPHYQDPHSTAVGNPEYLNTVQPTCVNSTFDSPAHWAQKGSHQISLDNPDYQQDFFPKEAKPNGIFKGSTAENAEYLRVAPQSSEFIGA
Sequence of MUSK (O15146 whole entry): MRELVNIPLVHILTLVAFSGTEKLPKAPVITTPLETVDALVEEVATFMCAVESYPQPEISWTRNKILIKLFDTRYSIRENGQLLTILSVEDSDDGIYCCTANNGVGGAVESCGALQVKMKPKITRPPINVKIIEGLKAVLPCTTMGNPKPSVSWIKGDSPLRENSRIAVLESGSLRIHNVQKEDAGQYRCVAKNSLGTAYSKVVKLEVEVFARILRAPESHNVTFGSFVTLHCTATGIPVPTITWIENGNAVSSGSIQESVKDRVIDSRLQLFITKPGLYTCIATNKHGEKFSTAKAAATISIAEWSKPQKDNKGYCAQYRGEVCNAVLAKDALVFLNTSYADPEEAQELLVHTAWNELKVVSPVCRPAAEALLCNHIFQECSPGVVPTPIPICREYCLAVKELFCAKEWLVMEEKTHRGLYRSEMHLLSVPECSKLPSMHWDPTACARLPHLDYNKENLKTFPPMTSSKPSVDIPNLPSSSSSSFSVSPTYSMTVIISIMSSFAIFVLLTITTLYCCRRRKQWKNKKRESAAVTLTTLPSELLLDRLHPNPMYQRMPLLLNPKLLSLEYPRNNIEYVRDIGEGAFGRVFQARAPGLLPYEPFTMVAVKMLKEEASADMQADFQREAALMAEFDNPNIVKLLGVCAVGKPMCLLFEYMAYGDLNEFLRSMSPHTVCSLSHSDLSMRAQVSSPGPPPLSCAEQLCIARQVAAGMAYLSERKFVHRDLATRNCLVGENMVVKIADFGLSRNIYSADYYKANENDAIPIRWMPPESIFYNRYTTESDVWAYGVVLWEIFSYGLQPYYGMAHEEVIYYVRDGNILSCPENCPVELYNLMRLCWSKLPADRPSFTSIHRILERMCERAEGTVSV

Work on `CN1CCN(c2ccc(Nc3nc(Oc4ccc(NC(=O)CCl)cc4)c4cc[nH]c4n3)cc2)CC1` [CPT1-70-1] yielded a remaining activity at 1 µM (HPK1; [1]) of 13%, a remaining activity at 1 µM (INSRR; [1]) of 33% and a remaining activity at 1 µM (MEK3; [1]) of 26%. It also gave a remaining activity at 1 µM (EGFR; [1]) of 63%, a remaining activity at 1 µM (MAP4K5; [1]) of 25% and a remaining activity at 1 µM (MARK4; [1]) of 1.8%. For the same compound, the remaining activity at 1 µM (AKT2; [1]) was 100%, the remaining activity at 1 µM (IKK-epsilon; [1]) was 100% and the remaining activity at 1 µM (MYO3B; [1]) was 100%. For the same compound, the remaining activity at 1 µM (DAPK2; [1]) was 88%, the remaining activity at 1 µM (FLT3(D835H); [1]) was 10% and the remaining activity at 1 µM (CAMK1D; [1]) was 56%. It also gave a remaining activity at 1 µM (LYN; [1]) of 49%, a remaining activity at 1 µM (FLT3(R834Q); [1]) of 51% and a remaining activity at 1 µM (CDK4-cyclinD3; [1]) of 100%. For the same compound, the remaining activity at 1 µM (CDK4-cyclinD1; [1]) was 81%, the remaining activity at 1 µM (CSNK1A1; [1]) was 55% and the remaining activity at 1 µM (CDC2L2; [1]) was 100%. For the same compound, the remaining activity at 1 µM (DCAMKL1; [1]) was 100%, the remaining activity at 1 µM (MUSK; [1]) was 8.8% and the remaining activity at 1 µM (EGFR(G719S); [1]) was 34%. It also gave a remaining activity at 1 µM (CDK7; [1]) of 100%, a remaining activity at 1 µM (ITK; [1]) of 0.85% and a remaining activity at 1 µM (FLT3; [1]) of 3%. For the same compound, the remaining activity at 1 µM (EGFR(G719C); [1]) was 8%, the remaining activity at 1 µM (MAPKAPK5; [1]) was 98% and the remaining activity at 1 µM (MLK2; [1]) was 56%. The remaining activity at 1 µM (MKNK1; [1]) was 100% and the remaining activity at 1 µM (AMPK-alpha1; [1]) was 32%.
Compound `CCN1CCN(Cc2ccc(NC(=O)c3ccc(C)c(CCc4cnc5[nH]ccc5c4OC)c3)cc2C(F)(F)F)CC1` [HYJ-2-002-1] has a remaining activity at 1 µM (HPK1; [2]) of 3.4%, a remaining activity at 1 µM (INSRR; [2]) of 100% and a remaining activity at 1 µM (MEK3; [2]) of 100%. The remaining activity at 1 µM (EGFR; [2]) was 5%, the remaining activity at 1 µM (MAP4K5; [2]) was 16% and the remaining activity at 1 µM (MARK4; [2]) was 94%. For the same compound, the remaining activity at 1 µM (AKT2; [2]) was 95%, the remaining activity at 1 µM (IKK-epsilon; [2]) was 94% and the remaining activity at 1 µM (MYO3B; [2]) was 49%. It also gave a remaining activity at 1 µM (DAPK2; [2]) of 92%, a remaining activity at 1 µM (FLT3(D835H); [2]) of 7.3% and a remaining activity at 1 µM (CAMK1D; [2]) of 94%. For the same compound, the remaining activity at 1 µM (LYN; [2]) was 0.15%, the remaining activity at 1 µM (FLT3(R834Q); [2]) was 44% and the remaining activity at 1 µM (CDK4-cyclinD3; [2]) was 100%. It also gave a remaining activity at 1 µM (CDK4-cyclinD1; [2]) of 80%, a remaining activity at 1 µM (CSNK1A1; [2]) of 100% and a remaining activity at 1 µM (CDC2L2; [2]) of 76%. For the same compound, the remaining activity at 1 µM (DCAMKL1; [2]) was 100%, the remaining activity at 1 µM (MUSK; [2]) was 1.4% and the remaining activity at 1 µM (EGFR(G719S); [2]) was 1.8%. For the same compound, the remaining activity at 1 µM (CDK7; [2]) was 44%, the remaining activity at 1 µM (ITK; [2]) was 75% and the remaining activity at 1 µM (FLT3; [2]) was 0.5%. The remaining activity at 1 µM (EGFR(G719C); [2]) was 0.75%, the remaining activity at 1 µM (MAPKAPK5; [2]) was 100% and the remaining activity at 1 µM (MLK2; [2]) was 93%. It also gave a remaining activity at 1 µM (MKNK1; [2]) of 84% and a remaining activity at 1 µM (AMPK-alpha1; [2]) of 87%.
